Laboratory results taken from patent EP0470325A1, “Composition and method to keep under control the reproduction rate of vertebrate animals by means of a composition containing peripheral dopamine agonists” (priority 1990, dated 1992).
Where two headings read alike, the source gives them in different places.

What was measured:
mice = conditions: oral route, cited from earlier work
adult female rats = experiment: fertility of adult female rats treated before mating; assay type: in vivo; conditions: 25 mcg/kg b.w./day per os for 10 days before mating
rats = conditions: oral route, cited from earlier work
prolactin incretion = experiment: inhibiting action on prolactin incretion after a single oral dose; assay type: in vivo; conditions: single oral dose of 100 mcg/kg b.w., female rats, time after treatment
Protocol: At a single oral dose of 100 micrograms per kg body weight (100 mcg/kg b.w.) in female rats, the inhibiting action on the prolactin incretion remains remarkably high more than 72 hours after treatment.

young female rats = experiment: onset of sexual maturity in young female rats at impuberal stage; assay type: in vivo; conditions: 25 mcg/kg body weight/day per os
[1] = tested on: adult female rats (Sprague Dawley); experiment: pup weight and starvation during lactation of treated mother rats; assay type: in vivo
Protocol: 15 adult female rats (Sprague Dawley) at their second delivery were randomly divided into 3 groups of 5 animals each. One group served as control, the other two groups were treated with different dosages of cabergoline: animals of the former group received it at the dose of 25 mcg/kg b.w./day; animals of the latter one received it at the dose of 100 mcg/kg b.w./day, starting from the day following the delivery.
Cabergoline was administered with a pellet of standard feed for breeding rats (Altromin MT@ of the firm Rieper, Bolzano). After complete consumption of the medicated pellet, food and water were made available "ad libitum".
At the dose of 100 mcg/kg b.w./day 100% of pups starved already within the first week of lactation (see Table 1).

pregnant rats = experiment: gestation of treated pregnant rats; assay type: in vivo; conditions: 25 mcg/kg b.w./day per os, control rats had normal delivery

In the case of `C=CCN1C[C@H](C(=O)N(CCCN(C)C)C(=O)NCC)C[C@@H]2c3cccc4[nH]cc(c34)C[C@H]21` [cabergoline, 1-ethyl-3-(3'-dimethylaminopropyl)-3-(6'-allylergoline-8'β-carbonyl)-urea], the “LD50 (Lethal Dose 50)” value (mice; female mice) is given as 200 mg/kg b.w, the “LD50 (Lethal Dose 50)” value (mice; male mice) is given as 350 mg/kg b.w and the fertility (adult female rats) is given as “completely inhibited”. For the same compound, the LD50 (rats; female rats (second value of 'respectively')) was 350 mg/kg b.w, the LD50 (rats; male rats (first value of 'respectively')) was 400 mg/kg b.w and the “time for which the inhibiting action on the prolactin incretion remains remarkably high” value (prolactin incretion) was “more than 72 hours”. The “onset of the sexual maturity” value (young female rats) was “remarkably delayed”, the “Pups mean weight (in grams) at lactation days 7th” value ([1]; 25 mcg/kg b.w./day to the mother, 7th day of lactation, mean ± SD) was 7.9 ±1.6 grams and the “Pups mean weight (in grams) at lactation days 14th” value ([1]; 25 mcg/kg b.w./day to the mother, 14th day of lactation, mean ± SD) was 10.5 ±0.5 grams. The dead pups ([1]; 25 mcg/kg b.w./day to the mother, 14th day of lactation, of 63 pups) was 40, the “Pups mean weight (in grams) at lactation days 21st” value ([1]; 25 mcg/kg b.w./day to the mother, 21st day of lactation, mean ± SD) was 14.7 ±0.7 grams and the “body weight increase of the pups” value ([1]; 25 mcg/kg b.w./day to the mother, at the 7th, 14th and 21st day of lactation) was “remarkably reduced”. For the same compound, the pups starved ([1]; 25 mcg/kg b.w./day to the mother, within the second week of lactation) was “about 60%”, the dead pups ([1]; 100 mcg/kg b.w./day to the mother, 7th day of lactation, of 65 pups) was “- (65 dead)” and the pups starved ([1]; 100 mcg/kg b.w./day to the mother, within the first week of lactation) was 100%. The gestation (pregnant rats) was “interrupted their gestation after about ten days”.
